Like-named read-outs stand apart in the source and are kept apart here.
Key:
TAS2R16 [1] = target: T1, TAS2R16 (Homo sapiens, UniProt Q9NYV7); test: Fluo4-AM calcium imaging; type: cell-based; conditions: agonist; C1 buffer with or without NaCl ([…] NMDG), pH […]
T1 sequence (Q9NYV7 1-291): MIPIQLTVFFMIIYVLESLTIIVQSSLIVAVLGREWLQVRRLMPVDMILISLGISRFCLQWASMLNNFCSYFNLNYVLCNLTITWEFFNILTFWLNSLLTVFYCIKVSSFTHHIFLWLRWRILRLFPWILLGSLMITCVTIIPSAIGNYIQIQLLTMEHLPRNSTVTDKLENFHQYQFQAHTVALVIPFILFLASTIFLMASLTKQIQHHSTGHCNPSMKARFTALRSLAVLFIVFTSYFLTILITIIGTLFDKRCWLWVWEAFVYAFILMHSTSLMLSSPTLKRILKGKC

TAS2R16 [2] = target: T1, TAS2R16; test: Fluo4-AM calcium imaging; type: cell-based

OC[C@H]1O[C@@H](Oc2ccccc2)[C@H](O)[C@@H](O)[C@@H]1O [phenyl-βD-glucopyranoside]
EC50 (TAS2R16 [1]): signal saturation of TAS2R16 was achieved with phenyl-βD-glucopyranoside and helicin

OCc1ccccc1O[C@@H]1O[C@H](CO)[C@@H](O)[C@H](O)[C@H]1O [D-salicin]
EC50 (TAS2R16 [2]): 1280 ± 180 µM

O=Cc1ccccc1O[C@@H]1O[C@H](CO)[C@@H](O)[C@H](O)[C@H]1O [Helicin]
EC50 (TAS2R16 [1]): signal saturation of TAS2R16 was achieved with phenyl-βD-glucopyranoside and helicin

— publication PMC11082923 (Journal of Agricultural and Food Chemistry, 2024)
